Like-named read-outs stand apart in the source and are kept apart here.
What was measured:
[1] = Batch extraction of rac-propranolol with dibutyl L-(+)-tartrate / boric acid, dichloromethane/water; format: physicochemical; settings: for distribution coefficient: dichloromethane with dibutyl-L-tartrate / water with boric acid
Protocol: One mobile phase was used—a 54/46 v/v methanol/water solution containing 110 mM sodium acetate adjusted to a pH of 6 using glacial acetic acid, 215 mM boric acid, and 285 mM dibutyl L-(+)-tartrate. The flow rate was 0.23 mL/min. The column was heated to 25° C. and the detection was monitored at a wavelength of 275 nm. Samples were diluted 20× in 54/46 v/v methanol/water solution containing 110 mM sodium acetate buffered to a pH of 6 with glacial acetic acid and the injection volume was 10 μL.
Batch extraction experiments were performed as follows. 2 mL of 1 mg/mL rac-Propranolol in water containing 152.1 mM boric acid was mixed with 2 mL of 152.1 mM dibutyl L-(+)-tartrate in dichloromethane. The solution was vigorously shaken for approximately 2 minutes and allowed to fully settle. 20 μL of each phase were diluted with 380 μL of 110 mM sodium acetate in a 54/46 methanol/water solution buffered to a pH of 6 using glacial acetic acid and the solute concentrations were determined by HPLC.

[2] = 1,2-Dichloroethane/water (literature), 45x molar excess dibutyl-L-tartrate and boric acid; listed as R/S-PRP; cited from earlier work
[3] = Current platform (10/5/5 DCM/methanol/water ratio)
Protocol: Batch extraction experiments were performed as follows. 1 mg of each solute was added to 2 mL of dichloromethane, 1 mL of water, and 1 mL of methanol. The solution was vigorously shaken for around 2 minutes and allowed to fully settle. 100 μL of each phase were diluted with 900 μL of methanol and the solute concentrations were determined by HPLC.

[4] = Literature (10/6/4 DCM/methanol/water ratio); cited from earlier work
[5] = Partition coefficients of delta-9- and delta-8-tetrahydrocannabinol in liquid mixtures (Examples 1-9); format: physicochemical
Protocol: The cannabinoid sample contained both delta-9-tetrahydrocannabinol with delta-8-tetrahydrocannabinol. The liquid mixtures included an organic phase as the first liquid phase and a water soluble phase as the second liquid phase. The organic phase and the water soluble phase were in 1:1 volume ratio for all analyses. Various hydrocarbons were evaluated as the organic phase. These hydrocarbons included hexane, heptane, cyclohexane, pentane, 1-hexene, toluene, benzene, 1-octadecene, and dodecane. Various amide based solvents were evaluated as the water soluble phase. These amide based solvents included formamide (F), dimethyl formamide (DMF), methyl formamide (MF), dibutyl formamide (DBF).
Example 9. A mixture of formamide (F) and dimethyl formamide (DMF) and dibutyl formamide (DBF) at a volume ratio of 1:3:1 (20% F and 60% DMF and 20% DBF) was used as the water soluble phase. Hexane was used as the organic phase. […] The partition coefficients for each component (e.g., delta-9-tetrahydrocannabinol, delta-8-tetrahydrocannabinol) in the liquid mixture were determined by calculating a ratio of the concentration of the component in the water soluble phase over concentration of the component in the organic phase.

CC(C)NC[C@@H](O)COc1cccc2ccccc12 [R-PRP, R-propranolol]
distribution coefficient [1]: 0.12

CC(C)NCC(O)COc1cccc2ccccc12 (centres unmarked) [R/S-propranolol]
Selectivity between enantiomers ([1]; Dichloromethane/water (experiment), 45x molar excess dibutyl-L-tartrate and boric acid): 2.58 ± 0.07
Selectivity between enantiomers [2]: 2.54±0.13

CC(C)NCC(O)COc1cccc2ccccc12 (centres unmarked) [S-PRP]
distribution coefficient [1]: 0.30

COc1cc(C=O)cc(OC)c1O [Syringaldehyde, syringaldehyde]
αx/pHBA (selectivity) [3]: 25.5
αx/pHBA (selectivity) [4]: 17.8

CCCCCc1cc(O)c2c(c1)OC(C)(C)[C@@H]1CCC(C)=C[C@@H]21 [delta-9-tetrahydrocannabinol]
Kd9,THC/Kd8,THC ([5]; Example 1: F:DMF (9:16) / Hexane): 1.47
Kd9,THC/Kd8,THC ([5]; Example 2: F:DMF (9:16) / Heptane): 1.45
Kd9,THC/Kd8,THC ([5]; Example 3: F:DMF (9:16) / Cyclohexane): 1.48
Kd9,THC/Kd8,THC ([5]; Example 4: F:DMF (9:16) / Pentane): 1.36
Kd9,THC/Kd8,THC ([5]; Example 5: F:DMF (9:16) / 1-Hexene): 1.37
Kd9,THC/Kd8,THC ([5]; Example 6: F:DMF (1:1) / Dodecane): 1.39
Kd9,THC/Kd8,THC ([5]; Example 7: F:MF (1:1) / Hexane): 1.20
Kd9,THC/Kd8,THC ([5]; Example 8: F:MF (2:3) / Hexane): 1.23
Kd9,THC/Kd8,THC ([5]; Example 9: F:DMF:DBF (1:3:1) / Hexane): 1.39

O=C(O)c1ccc(O)cc1 [pHBA, para-hydroxybenzoic acid]
αx/pHBA (selectivity) [3]: 1.00
αx/pHBA (selectivity) [4]: 1.00

Reference: US20250361219A1, “SYSTEMS AND METHODS FOR SEPARATION OF CHEMICAL SPECIES, SUCH AS CANNABINOIDS, USING MULTIPLE LIQUID PHASES” (priority 2022, published 2025)
